Measured values as given in paper PMC12040169 (PLOS Biology, 2025).

Assay: in vitro
Details: human, hela cells, % viability

Row | SMILES | viability at 28.5 h, 10 µM
1 | O=C(c1ccccc1)c1ccc(S(=O)(=O)N2CCCN(Cc3cc(F)c(F)c(F)c3)CC2)cc1 [CBK062777] | 91.2%
2 | CCNC(=S)N1CCN(C(=O)c2cccc(OC)c2)CC1 [CBK154778] | 97.3%
3 | O=C(c1ccco1)N1CCCC(n2c(=O)oc3ccc(Cl)cc32)C1 (centres unmarked) [CBK282892] | 91.5%
4 | C[C@@H](NC(=O)CCN1C(=O)[C@@H]2Cc3ccccc3CN2C1=O)C(=O)O [CBK286709] | 93.7%
5 | c1ccc(OCCOc2nccnc2-c2ccsc2)cc1 [CBK106773] | 103%
6 | Cn1c(=O)c2c(nc(NCc3ccc4c(c3)OCO4)n2Cc2cccc(Cl)c2)n(C)c1=O [CBK074359] | 96.4%
7 | Nc1cccc(-c2cc(Nc3ccc(C4CCCCC4)cc3)ncn2)c1 [CBK091191] | 88.8%
8 | CN(C)c1ccc(C2C(C(=O)c3ccccc3)=C(O)C(=O)N2CCCC(=O)O)cc1 (centres unmarked) [CBK263393] | 96.4%
9 | CCOC(=O)N1CCC(NC(=O)N2CCN(c3ccccc3)CC2)CC1 [CBK155210] | 113%
10 | CCCn1c(O)cc(=O)nc1SCC(=O)NCc1ccc(OC)c(OC)c1 [CBK295592] | 101%
11 | CCNC(=O)NC1CC(C)(C)Cc2c1cnn2-c1ccc(OC)cc1 (centres unmarked) [CBK307313] | 90.6%
12 | O=c1[nH]c(=S)[nH]c2c1CCC2 [CBK113252] | 92.4%
13 | CC(C)NS(=O)(=O)c1ccc(NS(=O)(=O)c2ccc(F)c(C(=O)O)c2)cc1 [CBK297533] | 93.6%
14 | O=C(O)CNC(=O)c1ccc(S(=O)(=O)N2CCCC2)cc1 [CBK267434] | 87%
15 | Cc1nn(C)cc1C(C)NC(=O)C1CC2C=CC1C21CC1 (centres unmarked) [CBK282088] | 100%
16 | Cn1c(CSc2nc3sc4c(c3c(=O)[nH]2)CCCC4)nnc1SC/C=C/c1ccccc1 [CBK264428] | 107%
17 | CSc1nn(C)c(=O)c2c3c(sc12)CCC3 [CBK019796] | 83.7%
18 | COc1ccc(-c2cnc3[nH]c(=O)n(CCCN4CCOCC4)c3n2)c(OC)c1OC [CBK064249] | 109%
19 | COc1ccc(Oc2ncnc3c2oc2ccccc23)cc1 [CBK291224] | 86.4%
20 | COc1ccc(Cn2ncnc2CC2CCNCC2)cc1 [CBK307071] | 83.4%
21 | CC(C)(C)OC(=O)Nc1ccc(Nc2cc(-c3ccc(F)c(F)c3)ncn2)cc1 [CBK091143] | 90.1%
22 | Nc1nc(-c2ccccc2)c(C(=O)Nc2ccccc2)s1 [CBK058068] | 95.2%
23 | Cc1[nH]nc(Nc2ccc(C(=O)O)cc2)c1[N+](=O)[O-] [CBK262726] | 80%

Row | SMILES | viability at 28.5 h, 10 µM
24 | FC(F)(F)C1=NC(C(F)(F)F)=NP(N2CCOCC2)(N2CCOCC2)=N1 [CBK261042] | 94.3%
25 | COc1ccccc1-c1cnc(N)c(N[C@H](C)c2ccccc2)n1 [CBK063705] | 102%
26 | COc1ccc(S(=O)(=O)N(C)CC(=O)Nc2ccc(S(N)(=O)=O)cc2)cc1C [CBK267333] | 93.7%
27 | NCc1ccc(OC2CCNCC2)cc1 [CBK003920T] | 88.7%
28 | O=C(O)CCC(=O)Nc1ccccc1C(=O)O [CBK261325] | 91.1%
29 | CCOC(=O)c1c(NC(=O)CCN2CCCCC2)sc2c1CCCCC2 [CBK265319G] | 89.9%
30 | COc1cc(C(=O)Nc2ccc(N3CCN(C)CC3)cc2)ccc1OCc1ccc(Cl)cc1 [CBK266116] | 99%
31 | CSc1nc(O)c(C(c2cccc([N+](=O)[O-])c2)c2c(O)nc(SC)nc2O)c(O)n1 [CBK265370] | 80.5%
32 | NS(=O)(=O)c1cc(C(=O)NCCc2ccc(F)cc2)c(Cl)cc1Cl [CBK288512] | 96.7%
33 | CN1CCC(N(C)Cc2coc3ccccc3c2=O)CC1 [CBK261578] | 103%
34 | CC1Cc2cc(-c3cc4ccccn4c3)ccc2N1S(C)(=O)=O (centres unmarked) [CBK285227] | 90.3%
35 | O=C1c2cccc([N+](=O)[O-])c2C(=O)N1c1cc(Cl)cc(Cl)c1 [CBK115326] | 112%
36 | N#CCCCN1CCC(Oc2nccnc2OCc2ccc(F)cc2)CC1 [CBK153643] | 115%
37 | C(=N\N1CCOCC1)/c1ccc2c(c1)OCO2 [CBK026446] | 108%
38 | O=[S+]([O-])(c1ccccc1)N1CCC(N(CCc2ccccc2)Cc2ccccc2)CC1 [CBK264617G] | 102%
39 | Nc1n[nH]c2nc(-c3ccccc3)c3c(c12)CCC3 [CBK288178] | 88.8%
40 | Oc1cc(-c2ccccc2Cl)[nH]n1 [CBK074226] | 95.6%
41 | Cc1noc(C)c1CC(=O)NCc1ccc(CN2CCCCC2)cc1 [CBK281422] | 93.6%
42 | CC(C(=O)Nc1ccc2c(c1)OCO2)N(c1ccc(Cl)cc1)S(C)(=O)=O (centres unmarked) [CBK268595] | 89.5%
43 | O=C1Nc2ccc(-c3ccc(Cl)cc3)cc2C(=O)N2CCN(C(=O)c3cccnc3)C[C@H]12 [CBK289590] | 107%
44 | C#CCNC(=O)CC[C@H]1CNC(=O)[C@@H]2[C@@H](CCN2CC(C)(C)C)N1C [CBK289035] | 95.1%
45 | Cn1c(CO)nnc1[C@H]1C[C@@H](NC(=O)COc2ccc(Cl)c(Cl)c2)C1 [CBK306667] | 101%
46 | O=[N+]([O-])c1ccc(NCCNCCO)c(Cl)c1 [CBK261006] | 97.5%

Row | SMILES | viability at 28.5 h, 10 µM
47 | O=C1NC2(CC3CCC2CC3C(=O)NC2CC2)Oc2ccccc21 (centres unmarked) [CBK284352] | 99.6%
48 | C[C@]12CN(C(=O)c3ccccc3)C[C@H]1NC(=O)c1ccccc1C2=O [CBK281657] | 102%
49 | NNC(=O)c1cc(-c2ccc(-c3ccccc3)cc2)nc2ccc(Br)cc12 [CBK261760] | 104%
50 | Cc1[nH]ncc1CN1CCCC(c2cc3ccccc3cn2)C1 (centres unmarked) [CBK285029] | 108%
51 | CCc1nnc(NS(=O)(=O)c2ccc(NC(=O)c3ccc([N+](=O)[O-])cc3)cc2)s1 [CBK045483] | 95.4%
52 | Cc1ccc(C2=CCN(CC(=O)Nc3ccc(N(C)C)cc3)CC2)o1 [CBK283604] | 95.5%
53 | Fc1cccc(NCc2ccccc2)n1 [CBK000149] | 94.9%
54 | CC(=O)N1CCN(C(=O)Cn2ccc3ccccc32)CC(O)C1 (centres unmarked) [CBK307552] | 98.1%
55 | CCOC(=O)c1cnn2c(O)cc(CN3CCc4sccc4C3)nc12 [CBK305680] | 106%
56 | O=C(NC1CCCC1)c1cccnc1 [CBK200236] | 111%
57 | CCN(C(=O)C(C)N(C)Cc1c(C)nn(C2CCS(=O)(=O)C2)c1C)c1cccc2ccccc12 (centres unmarked) [CBK295206] | 108%
58 | COc1ccc(OCCN2CCc3ccccc3C2)cc1 [CBK126403] | 94.8%
59 | CCNC(=O)N(C)C1CCN(c2ncnc3ccccc23)CC1 [CBK305537] | 110%
60 | CC(C)n1cnnc1CN1CCN(c2ccc(C#N)cc2)CC1 [CBK307714] | 106%
61 | COc1ccc(OCC(O)Cn2c(CCCO)nc3ccccc32)cc1 (centres unmarked) [CBK305579] | 101%
62 | Cc1cc(COc2ccnc(N3CCCN(CCCO)CC3)n2)no1 [CBK083917] | 98.4%
63 | COC(=O)C(C)(C)C1c2cc(Br)ccc2OC(=O)C1C(=O)c1ccccc1 (centres unmarked) [CBK266690] | 102%
64 | COc1ccc2c(c1)c(C(=O)N1CC(C)(C)C(C)(O)C1)c(C)n2C (centres unmarked) [CBK306896] | 77.2%
65 | CCC(C)NC(=O)C1(Cc2ccc(-c3cc(F)ccc3OC)cc2)CCOCC1 (centres unmarked) [CBK285539] | 102%
66 | O=S(=O)(Nc1ccc2nsnc2c1)c1ccc(F)cc1 [CBK051010] | 90.2%
67 | CS(=O)(=O)N1CC2(CCN(Cc3ccc(OC(F)(F)F)cc3)CC2)c2ccccc21 [CBK126668] | 99.4%
68 | O=C(O)CCC(=O)NCc1ccc2c(c1)OCO2 [CBK286930] | 91.6%
69 | COc1cccc(Cc2cccc(C3CCN(C(=O)Cc4ccccc4)CC3)n2)c1 [CBK286147] | 96.9%

Row | SMILES | viability at 28.5 h, 10 µM
70 | O=Cc1c(-[n+]2ccc(-c3ccncc3)cc2)nc([O-])n1-c1ccccc1 [CBK261529] | 108%
71 | COc1cccc2ccn(S(=O)(=O)c3ccsc3C(=O)O)c12 [CBK003636] | 96.1%
72 | COCCCn1c(=O)[nH]c2ncc(-c3cnc(OC)nc3)nc21 [CBK064618] | 92%
73 | COc1ccc(-c2n[nH]c(=S)n2CC(=O)N2CCN(c3cccc(C)c3)CC2)cc1 [CBK295352] | 88.6%
74 | C#CCNC(=O)N(C)C1CCN(c2ncnc3ccccc23)CC1 [CBK306109] | 97.6%
75 | COc1ccc(N2CCN(c3cncc(-c4ccc(C(N)=O)cc4)n3)CC2)cc1OC [CBK065820] | 93.8%
76 | COCCN1C(=O)/C(=C2/C(=O)N(CC(=O)Nc3ccccc3)c3ccccc32)SC1=S [CBK264489] | 91.3%
77 | CCc1nc2ccc(C(=O)N(C)Cc3ccco3)cn2c1N(C)Cc1cccs1 [CBK145552] | 98.5%
78 | CCCc1ccc(S(=O)(=O)Nc2ccc(C(=O)O)cc2)cc1 [CBK034044] | 114%
79 | CCOC(=O)C1CCN(S(=O)(=O)c2ccccc2)CC1 [CBK051091] | 107%
80 | COc1cc(S(=O)(=O)NCc2ccncc2)c(C)cc1C [CBK269988] | 91.8%
81 | COc1ccc(-c2nc(CCN)n3ccccc23)cc1 [CBK035583] | 94.3%
82 | CCCn1c(SCc2csc(COc3ccc(Cl)cc3)n2)n[nH]c1=O [CBK295140] | 82.3%
83 | O=C(COc1ccc(S(=O)(=O)N2CCCCC2)cc1)N1CCN(Cc2ccccc2)CC1 [CBK269144] | 87.1%
84 | COc1ccc(CCC(=O)c2cnc3sc4c(n23)CCCCC4)cc1 [CBK016849] | 109%
85 | CCn1ncnc1CN1CCOc2ccc(CO)cc2C1 [CBK307245] | 80.7%
86 | COc1ccccc1-c1cc(Nc2ccc(N3CCOCC3)cc2)ncn1 [CBK090933] | 83.7%
87 | CN1N=C(c2ccc(N3CCOCC3)c(F)c2)CC1c1cnn(C)c1 (centres unmarked) [CBK305726] | 87.6%
88 | CCc1c(C)nc2c(C(=O)N3CCCC3COC)cnn2c1C (centres unmarked) [CBK162146] | 92.1%
89 | CCN(CC)C(=O)c1ccccc1NS(=O)(=O)c1ccc(C)cc1 [CBK045416] | 88.7%
